Results as given in patent US20230123497A1, “NOVEL ANTIBACTERIAL HYDROGELS” (NewSouth Innovations Pty Limited, priority 2020, published 2023).
Where “and” joins values, the source holds several entries; their conditions need not be identical. Equal values may be shown once.

Key:
[1] = test system: E. coli K12; experiment: Antibacterial activity of cationic hydrogel 11, viable count method; assay type: cell-based, Escherichia coli; details: hydrogel 11 at 1% w/v in contact with E. coli
Protocol: The antibacterial activity of the anthranilamide-based cationic hydrogels 11-13 and 15-19 was investigated in vitro against S. aureus. The antibacterial activity of anthranilamide-based cationic hydrogel 11 was also investigated in vitro against E. coli.
First, a single colony of S. aureus 38 or E. coli K12 was grown in Luria-Bertani (LB) broth medium at 37° C. overnight. The resulting bacteria were harvested, via centrifugation, to obtain a bacteria pellet which was re-suspended in the same volume of LB medium, twice. The optical density (OD) value of the resulting culture was adjusted to 0.1 at 600 nm in LB (10^8 cfu·mL^−1). This bacteria solution was then further adjusted to 3×10^4 cfu mL^−1. (CFU or cfu=colony-forming unit). Bacteria solutions (1 mL), which contain either 10^8 CFUs/mL or 3×10^4 CFUs/mL, were gently added to hydrogel 11 at 1% w/v with total volume of 1 mL. Anthranilamide-based cationic hydrogels 11-13 and 15-19 (1 mL) were prepared at 1% w/v in glass vials as described above. On top of these pre-formed hydrogels, 1 mL of bacteria solution was carefully cast. […] As a negative control, a bacterial solution in the absence of hydrogel was used. […] The following day, bacterial growth inhibition was quantified using the viable count method. […]

[2] = Release of cationic short peptide from hydrogel (UV-Vis); assay type: physicochemical; details: hydrogel 1% w/v, PBS, 37° C.
Protocol: Hydrogel 11 was made at 1% w/v with a final volume of 1 mL. The resulting hydrogel was left to stand overnight at room temperature. Phosphate buffer solution (PBS, 1 mL) was added gently from the side wall to avoid physical fractures. Subsequently, the vial was incubated at 37° C., where 1 mL of PBS was sampled at each time point and replaced with fresh PBS. Samples were subjected to 10× dilution before analysis using UV-Vis spectroscopy. This experiment was performed in triplicate.

[3] = NO release from hydrogel 4 quantified with Griess reagent; assay type: physicochemical
Protocol: NO release from hydrogel 4 was quantified using the Griess reagent, which is an indirect method that measures collected nitrite as the primary degradation product of NO. Nitrobenzene-appended anthranilamide-based hydrogel 4 was pre-formed in an aluminium covered vial at 1% w/v (1 mL). Milli-Q water (1 mL) was carefully cast on top of the hydrogel, which was subsequently exposed to UV or blue light irradiation. At certain time points (0, 5, 15, 30, 60, and 120 min), the entire upper solutions were carefully removed and allowed to react with Griess reagent, according to the indication of the NO assay kit (Promega), to provide an azo compound that is responsible for providing the colorimetric assay. Subsequently, 1 mL of fresh Milli-Q water was immediately added to the top of hydrogel 4 for continuing the release.
Due to the strong absorbance of hydrogel 4 in the UV range, NO release was triggered by using a UV lamp (λ=356 nm). The same volume of Milli-Q water was placed on top of hydrogel 4, which was irradiated with UV light for 2 hours. The entire solution, on top of the hydrogel, was removed and replaced with the same amount of Milli-Q water periodically. The resulting solutions were reacted with Griess reagent. Any NO generated during the experiment would react with oxygen to generate nitrite ion (NO2^−). The subsequent reaction between NO2^− with Griess reagent, which contains sulfanilamide and N-(1-naphthyl)ethylenediamine (NED), will form a bright pink azo-dye compound that can be quantified using UV-Vis spectroscopy, as shown in the below scheme: […]

[4] = Hydrogel formation, vial inversion test (critical gel concentration); assay type: physicochemical; set-up: key: OG: opaque gel; P: precipitate; details: solvent switch
Description: The simplest method to determine whether a suitable hydrogel has formed is to use the vial inversion test. Through visual inspection, a material can be categorised as a solution, viscous solution, partial gel, or solid-like gel. A stable hydrogel needs to be able to hold its weight and/or maintain its shape during this assessment.
The critical gel concentration (CGC) is defined as the minimum mass of a short peptide required to provide a self-supporting hydrogel per unit volume in the vial inversion test (measured as % w/v).
Pre-weighed samples of short peptide 4 were prepared in aluminium-covered glass vials and Milli-Q water and 2 equivalents of NaOH (1.0 M) were added to make up concentrations of 1% w/v. The resulting suspensions were vortexed for 5 minutes to provide clear yellow solutions with pH 11.
To create a high ionic strength environment, 1 equivalent of NaCl was added and the vial was left to stand without disturbance for 3 hours at room temperature. Meanwhile, as an attempt to form a hydrogel by lowering the pH, 2 equivalents of GdL were added to a high pH solution of 4 followed by gentle mixing. These vials were inverted and allowed to stand overnight to confirm the hydrogel formation.
The formation of hydrogel 4 via the solvent switch method was conducted by dissolving short peptide 4, in an aluminium covered glass vial, with either 50% methanol, ethanol, or dimethyl sulfoxide (DMSO). Respective amounts of Mili-Q water were added to make up concentrations of 1% w/v.
In addition, gelation time was defined as the time (hours) required for 1% w/v of short peptide 4 to form a hydrogel which can be turned upside down without collapsing.
Pre-weighed samples of short peptides 10a-17a, 18, and 19 were prepared in glass vials with 10 mm internal diameter, and Milli-Q water was added to make up concentrations of 1% w/v. The resulting suspensions of short peptides 13, 18, and 19 (as ammonium or guanidinium salts) were slowly warmed until all solid had completely dissolved. GdL (1.5 to 2.0 equivalents) was added to the suspension of short peptides 10a-17a, before heat was applied. To create a high ionic strength environment, 1-5 equivalents of NaCl was added to the viscous solution of 10a-17a to make the total volume up to 1 mL, followed by gentle mixing, and the vial was left to stand without disturbance for 3 hours at room temperature. Subsequently, these vials were inverted and allowed to stand overnight to confirm hydrogel formation.

SMILES | bacteria reduction [1] | peptide released from hydrogel ([2]; 24 hours) | total peptide released ([2]; over 9 days) [%] | NO detected ([3]; hydrogel 1% w/v, UV light (λ=356 nm), 5 minutes) [µM] | NO generated ([3]; hydrogel 1% w/v, UV light (λ=356 nm), 30 minutes) [µM] | NO recovered ([3]; hydrogel 1% w/v, UV light, 2 hours) [%] | irradiation time required to generate NO concentration that can kill E. coli ([3]; hydrogel 1% w/v, blue light) [h] | total NO recovered ([3]; hydrogel 1% w/v, blue light, 2 hours) [%] | NO release in the absence of triggers ([3]; no UV or blue light) | Remarks (gel state) ([4]; DMSO 5 % v/v) | Remarks (gel state) ([4]; DMSO 50 % v/v) | Remarks (gel state) ([4]; EtOH 5 % v/v) | Remarks (gel state) ([4]; EtOH 50 % v/v) | Remarks (gel state) ([4]; MeOH 5 % v/v) | Remarks (gel state) ([4]; MeOH 50 % v/v)
NCCCNC(=O)[C@H](Cc1ccccc1)NC(=O)c1ccccc1NC(=O)c1ccc2ccccc2c1 [Compound 11] | 6.4 Log10 and 6.2 Log10 | 0.15 mg/mL and 221 μM | ~14 | – | – | – | – | – | – | – | – | – | – | – | –
O=C(Nc1ccccc1C(=O)N[C@@H](Cc1ccccc1)C(=O)N[C@@H](Cc1ccccc1)C(=O)O)c1ccc([N+](=O)[O-])c(C(F)(F)F)c1 [Compound 4, (2-(4-Nitro-3-(trifluoromethyl)benzamido)benzoyl)-L-phenylalanyl-L-phenylalanine] | – | – | – | 1 | 7 | 61 | 1 | 23 | does not leach NO | P | OG | P | OG | P | OG
